Experimental data: patent US20120238603A1, “TREATMENT FOR INFLAMMATORY BOWEL DISEASE” (SANOFI, priority 2009, published 2012)
Like-named read-outs stand apart in the source and are kept apart here.

Columns and labels:
human beta-tryptase = human beta-tryptase (Homo sapiens, UniProt P20231); experiment: Inhibition of recombinant human beta-tryptase (Ki); assay type: biochemical; details: recombinant enzyme
[1] = molecular target: T1, mouse MCPT-6 (mouse orthologue of human beta-tryptase) (Mus musculus, UniProt P21845); experiment: Inhibition of recombinant mouse MCPT-6 (Ki); assay type: biochemical; details: recombinant enzyme
T1 sequence (P21845 32-276): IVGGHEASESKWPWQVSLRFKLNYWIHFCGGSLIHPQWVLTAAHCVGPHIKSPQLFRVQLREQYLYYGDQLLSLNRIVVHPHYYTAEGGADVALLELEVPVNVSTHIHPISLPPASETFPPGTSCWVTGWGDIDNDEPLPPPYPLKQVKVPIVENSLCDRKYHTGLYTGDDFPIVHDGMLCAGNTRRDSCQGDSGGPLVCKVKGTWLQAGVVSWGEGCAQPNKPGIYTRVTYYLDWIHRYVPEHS

[2] = test system: TNBS-induced ulcerative colitis; experiment: Murine TNBS-induced ulcerative colitis; assay type: in vivo, male balb/mice; details: for % protective effect vs. TNBS alone: Colon wt/length (TNBS-719)/(TNBS-ctl) / % protective effect vs. TNBS alone: Diarrhea / % protective effect vs. TNBS alone: Dilation / % protective effect vs. TNBS alone: MPO / % protective effect vs. TNBS alone: Macroscopic Score / % protective effect vs. TNBS alone: Ulceration / % protective effect vs. TNBS alone: Body wt d 4 (% Δ719-% ΔTNBS)/(% Δ Ctl-% ΔTNBS) / % protective effect vs. TNBS alone: Tissue TNFα: day 4; for % protective effect vs. TNBS alone: Body wt d 4 (% Δ719-% ΔTNBS)/(% Δ Ctl-% ΔTNBS): oral once daily
Protocol: The effect of the compound of Formula I in murine TNBS-induced ulcerative colitis. TNBS (Trinitro benzene sulfonic acid) is known to induce colitis in some strains of mice and rats by haptenating colonic proteins, resulting in an immune response. This model resembles multiple features, both histologic and immunologic, of human IBD (particularly Crohn's disease).
In some experiments, male balb/mice were pre-sensitized with 1% TNBS administered epicutaneously on day −7. On Day 0, TBNS (2.5 mg/100 mcl) in 35% ethanol or 100 mg/kg TNBS in 50% ethanol, was administered intrarectally, and colitis-relevant readouts were measured 4 days later. The compound of Formula I as hydrochloride salt or as fumarate salt was administered orally in 1% carboxymethylcellulose-Tween. Sulfazalazine was given at 100 mg/kg. Both compounds were given once daily.
• 0 No damage • 1 Hyperemia without ulcers • 2 Hyperemia and bowel wall thickening without ulcers • 3 One site of ulceration without bowel wall thickening • 4 Two or more sites of ulceration/inflammation • 5 0.5 cm inflammation and major damage • 6-10 1 cm or more of major damage (0.5 cm=1 point) • 0/1 Diarrhea +/− • 0/1/2 No dilatation/partial dilatation/dilatation in the whole length

mild to moderate UC = details: cited from earlier work
b-tryptase = b-tryptase (Homo sapiens, UniProt P20231); details: reported selective b-tryptase inhibitor at low doses; cited from earlier work
TNBS-induced colitis = details: rat; intra-colonic injections of NM 10-9, 10-11 and 10-13 M daily for 6 days; compared with 5-ASA 25 mg/Kg; cited from earlier work
[3] = first Formula I / sulfazalazine column pair, sulfazalazine 100 mg/kg
[4] = second Formula I / sulfazalazine column pair, sulfazalazine 100 mg/kg

Sequence of human beta-tryptase (P20231 31-275): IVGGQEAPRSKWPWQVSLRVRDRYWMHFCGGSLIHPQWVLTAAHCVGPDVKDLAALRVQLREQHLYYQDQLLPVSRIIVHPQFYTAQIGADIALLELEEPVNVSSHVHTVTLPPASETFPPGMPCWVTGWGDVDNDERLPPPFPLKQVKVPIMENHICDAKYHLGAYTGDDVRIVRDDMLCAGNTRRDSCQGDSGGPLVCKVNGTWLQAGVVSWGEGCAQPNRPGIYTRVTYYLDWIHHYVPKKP
Sequence of b-tryptase (P20231 31-275): as above

SMILES | % protective effect vs. TNBS alone: Body wt d 4 (% Δ719-% ΔTNBS)/(% Δ Ctl-% ΔTNBS) [2, 3] | % protective effect vs. TNBS alone: Colon wt/length (TNBS-719)/(TNBS-ctl) [2, 3] | % protective effect vs. TNBS alone: Diarrhea [2, 3] | % protective effect vs. TNBS alone: Dilation [2, 3] | % protective effect vs. TNBS alone: MPO [2, 3] | % protective effect vs. TNBS alone: Macroscopic Score [2, 3] | % protective effect vs. TNBS alone: Tissue TNFα [2, 3] | % protective effect vs. TNBS alone: Ulceration [2, 3] | % protective effect vs. TNBS alone: Body wt d 4 (% Δ719-% ΔTNBS)/(% Δ Ctl-% ΔTNBS) [2, 4] | % protective effect vs. TNBS alone: Colon wt/length (TNBS-719)/(TNBS-ctl) [2, 4] | % protective effect vs. TNBS alone: Diarrhea [2, 4] | % protective effect vs. TNBS alone: Dilation [2, 4] | % protective effect vs. TNBS alone: MPO [2, 4] | % protective effect vs. TNBS alone: Macroscopic Score [2, 4] | % protective effect vs. TNBS alone: Ulceration [2, 4] | further results
COCCn1cc(C(=O)N2CCC(c3cc(CN)ccc3F)CC2)c2c(OC(F)(F)F)ccc(F)c21 [Formula I, [4-(5-Aminomethyl-2-fluorophenyl)piperidine-1-yl][7-fluoro-1-(2-methoxyethyl)-4-trifluoromethoxy-1H-indol-3-yl]methanone] | 20% | 41% | 50% | 55% | 13% | 51% | 50% | 50% | 27% | 23% | 57% | 33% | 19% | 30% | 21% | Ki (human beta-tryptase): 38 nM; Ki [1]: 920 nM; % protective effect vs. TNBS alone: Colon wt/length (TNBS-719)/(TNBS-ctl) ([2]; Formula I 3 mpk): −10%; % protective effect vs. TNBS alone: Diarrhea ([2]; Formula I 3 mpk): 50%; % protective effect vs. TNBS alone: Dilation ([2]; Formula I 3 mpk): 25%; % protective effect vs. TNBS alone: MPO ([2]; Formula I 3 mpk): 0%; % protective effect vs. TNBS alone: Macroscopic Score ([2]; Formula I 3 mpk): 25%; % protective effect vs. TNBS alone: Ulceration ([2]; Formula I 3 mpk): 23%; % protective effect vs. TNBS alone: Colon wt/length (TNBS-719)/(TNBS-ctl) ([2]; Formula I 10 mpk): 16%; % protective effect vs. TNBS alone: Diarrhea ([2]; Formula I 10 mpk): 50%; % protective effect vs. TNBS alone: Dilation ([2]; Formula I 10 mpk): 38%; % protective effect vs. TNBS alone: MPO ([2]; Formula I 10 mpk): 0%; % protective effect vs. TNBS alone: Macroscopic Score ([2]; Formula I 10 mpk): 27%; % protective effect vs. TNBS alone: Ulceration ([2]; Formula I 10 mpk): 25%; decrease of macroscopic damage ([2]; doses ranging from 3-30 mg/kg, oral, once daily, hydrochloride or fumarate salt): 20-50%; protective effects in multiple aspects of experimental colitis ([2]; oral, once daily, versus sulfazalazine positive control): compared well with the sulfazalazine positive control
O=C(O)c1cc(/N=N/c2ccc(S(=O)(=O)Nc3ccccn3)cc2)ccc1O [sulfazalazine, reference compound] | 46% | 29% | 50% | 33% | 44% | 51% | 50% | 53% | 10% | 23% | 43% | 8% | 21% | 14% | 11% | –
NC(N)=Nc1ccc(CN2CCN(C(=O)O[C@@H]3CO[C@H]4[C@@H]3OC[C@H]4OC(=O)N3CCN(Cc4ccc(N=C(N)N)cc4)CC3)CC2)cc1 [APC-2059] | – | – | – | – | – | – | – | – | – | – | – | – | – | – | – | safety and tolerability (mild to moderate UC; 20 mg, SC, BID for 28 days on background of oral 5-ASA): safe and well tolerated; patients meeting remission criteria (DAI=0) (mild to moderate UC; 20 mg, SC, BID, 28 days, 5/56): 9%; patients meeting primary EP as responded (DAI≦3) (mild to moderate UC; 20 mg, SC, BID, 28 days, 16/56): 29%; patients meeting improved criteria (DAI≦3 or decreased by 4 points from baseline) (mild to moderate UC; 20 mg, SC, BID, 28 days, 27/56): 49%; response rate, post hoc (mild to moderate UC; baseline DAI score 7-9, 6/33): 18%; response rate, post hoc (mild to moderate UC; baseline DAI scores 6-7, 10/22): 45%; response, post hoc (mild to moderate UC; one patient, baseline DAI=11): did not respond
N=C(N)c1ccc2cc(OC(=O)c3ccc(N=C(N)N)cc3)ccc2c1 [Nafamostat mesilate] | – | – | – | – | – | – | – | – | – | – | – | – | – | – | – | Ki (b-tryptase): 0.095 nM; colonic mucosal inflammation (TNBS-induced colitis): significantly attenuated
